Literature values, collected in patent publication US9056899B2 (priority 2008, dated 2015).
In brackets after ≈: the same amount, converted by molar mass. Where two headings read alike, the source gives them in different places.

Key:
Details in all cases: cited from earlier work
[1] = system: BW25113 and gene knockouts
[2] = system: BW25113 and gene knockouts; remark: listed apart in the source
[3] = system: BW25113 and gene knockouts; remark: listed apart in the source
[4] = system: BW25113 and gene knockouts; remark: listed apart in the source

## Cc1cc(NS(=O)(=O)c2ccc(N)cc2)no1 [Sulfamethaxazone]
[1]; BW25113 starting strain
  MIC Plating: 1000 µg/mL (≈ 3950 µM)
[1]; JW5115 knockout
  MIC Plating: 400 µg/mL (≈ 1580 µM)
[1]; JW5474 knockout
  MIC Plating: 500 µg/mL (≈ 1970 µM)
[1]; dapF knockout
  MIC Plating: 300 µg/mL (≈ 1180 µM)
[1]; dcd knockout
  MIC Plating: >550 µg/mL
[1]; degP knockout
  MIC Plating: 500 µg/mL (≈ 1970 µM)
[1]; deoT knockout
  MIC Plating: 550 µg/mL (≈ 2170 µM)
[1]; dksA knockout
  MIC Plating: 550 µg/mL (≈ 2170 µM)
[1]; dnaK knockout
  MIC Plating: 300 µg/mL (≈ 1180 µM)
[1]; envC knockout
  MIC Plating: 400 µg/mL (≈ 1580 µM)
[1]; fis knockout
  MIC Plating: 600 µg/mL (≈ 2370 µM)
[1]; gpmM knockout
  MIC Plating: 400 µg/mL (≈ 1580 µM)
[1]; hns knockout
  MIC Plating: 550 µg/mL (≈ 2170 µM)
[1]; lpdA knockout
  MIC Plating: 400 µg/mL (≈ 1580 µM)
[1]; lptB knockout
  MIC Plating: 500 µg/mL (≈ 1970 µM)
[1]; nudB knockout
  MIC Plating: 350 µg/mL (≈ 1380 µM)
[1]; pgmB knockout
  MIC Plating: 500 µg/mL (≈ 1970 µM)
[1]; pstA knockout
  MIC Plating: 550 µg/mL (≈ 2170 µM)
[1]; pstS knockout
  MIC Plating: 550 µg/mL (≈ 2170 µM)
[1]; qmcA knockout
  MIC Plating: 550 µg/mL (≈ 2170 µM)
[1]; recA knockout
  MIC Plating: 400 µg/mL (≈ 1580 µM)
[1]; recB knockout
  MIC Plating: 350 µg/mL (≈ 1380 µM)
[1]; recC knockout
  MIC Plating: 350 µg/mL (≈ 1380 µM)
[1]; recG knockout
  MIC Plating: 500 µg/mL (≈ 1970 µM)
[1]; resA knockout
  MIC Plating: >550 µg/mL
[1]; rfaE knockout
  MIC Plating: 550 µg/mL (≈ 2170 µM)
[1]; rimK knockout
  MIC Plating: 350 µg/mL (≈ 1380 µM)
[1]; rplA knockout
  MIC Plating: 500 µg/mL (≈ 1970 µM)
[1]; rpmF knockout
  MIC Plating: 550 µg/mL (≈ 2170 µM)
[1]; rpsU knockout
  MIC Plating: 500 µg/mL (≈ 1970 µM)
[1]; tolC knockout
  MIC Plating: 400 µg/mL (≈ 1580 µM)
[1]; xapR knockout
  MIC Plating: >550 µg/mL
[1]; ybeY knockout
  MIC Plating: 500 µg/mL (≈ 1970 µM)
[1]; ybgF knockout
  MIC Plating: >550 µg/mL
[1]; yciM knockout
  MIC Plating: >550 µg/mL
[1]; yciS knockout
  MIC Plating: 550 µg/mL (≈ 2170 µM)
[1]; ydjI knockout
  MIC Plating: >550 µg/mL
[1]; yfgL knockout
  MIC Plating: 400 µg/mL (≈ 1580 µM)
[1]; ygcO knockout
  MIC Plating: 550 µg/mL (≈ 2170 µM)
[1]; yiiU knockout
  MIC Plating: 550 µg/mL (≈ 2170 µM)
[1]; yjjY knockout
  MIC Plating: >550 µg/mL
[1]; ylcG knockout
  MIC Plating: 500 µg/mL (≈ 1970 µM)
[1]; ymfI knockout
  MIC Plating: 500 µg/mL (≈ 1970 µM)
[1]; yneE knockout
  MIC Plating: 550 µg/mL (≈ 2170 µM)

## CC1(C)S[C@@H]2[C@H](NC(=O)[C@H](N)c3ccccc3)C(=O)N2[C@H]1C(=O)O [Ampicillin]
[2]; BW25113 starting strain
  MIC Plating: 6.0 µg/mL (≈ 17.2 µM)
[2]; JW5115 knockout
  MIC Plating: 2.0 µg/mL (≈ 5.72 µM)
[2]; acrA knockout
  MIC Plating: 1.5 µg/mL (≈ 4.29 µM)
[2]; acrB knockout
  MIC Plating: 2.0 µg/mL (≈ 5.72 µM)
[2]; atpA knockout
  MIC Plating: 2.5 µg/mL (≈ 7.15 µM)
[2]
  MIC Plating: 1.5 µg/mL (≈ 4.29 µM)
[2]; dacA knockout
  MIC Plating: 1.5 µg/mL (≈ 4.29 µM)
[2]; dapF knockout
  MIC Plating: 1.0 µg/mL (≈ 2.86 µM)
[2]; dcd knockout
  MIC Plating: 2.5 µg/mL (≈ 7.15 µM)
[2]; ddlB knockout
  MIC Plating: 1.0 µg/mL (≈ 2.86 µM)
[2]; dedD knockout
  MIC Plating: 2.0 µg/mL (≈ 5.72 µM)
[2]; deoT knockout
  MIC Plating: 2.0 µg/mL (≈ 5.72 µM)
[2]; dksA knockout
  MIC Plating: 2.0 µg/mL (≈ 5.72 µM)
[2]; emtA knockout
  MIC Plating: 2.0 µg/mL (≈ 5.72 µM)
[2]; envC knockout
  MIC Plating: 1.5 µg/mL (≈ 4.29 µM)
[2]; fkpB knockout
  MIC Plating: 2.5 µg/mL (≈ 7.15 µM)
[2]; gpmM knockout
  MIC Plating: 1.5 µg/mL (≈ 4.29 µM)
[2]; hscA knockout
  MIC Plating: 2.0 µg/mL (≈ 5.72 µM)
[2]; hscB knockout
  MIC Plating: 2.5 µg/mL (≈ 7.15 µM)
[2]; lptB knockout
  MIC Plating: 2.0 µg/mL (≈ 5.72 µM)
[2]; mrcB knockout
  MIC Plating: 2.0 µg/mL (≈ 5.72 µM)
[2]; pal knockout
  MIC Plating: 1.5 µg/mL (≈ 4.29 µM)
[2]; pgmB knockout
  MIC Plating: 1.5 µg/mL (≈ 4.29 µM)
[2]; phoP knockout
  MIC Plating: 2.0 µg/mL (≈ 5.72 µM)
[2]; qmcA knockout
  MIC Plating: 2.5 µg/mL (≈ 7.15 µM)
[2]; rimK knockout
  MIC Plating: 2.0 µg/mL (≈ 5.72 µM)
[2]; rplA knockout
  MIC Plating: 2.0 µg/mL (≈ 5.72 µM)
[2]; rpmF knockout
  MIC Plating: 1.5 µg/mL (≈ 4.29 µM)
[2]; rpsF knockout
  MIC Plating: 2.0 µg/mL (≈ 5.72 µM)
[2]; rrmJ knockout
  MIC Plating: 1.5 µg/mL (≈ 4.29 µM)
[2]; skp knockout
  MIC Plating: 2.0 µg/mL (≈ 5.72 µM)
[2]; sufI knockout
  MIC Plating: 2.0 µg/mL (≈ 5.72 µM)
[2]; surA knockout
  MIC Plating: 2.0 µg/mL (≈ 5.72 µM)
[2]; tatC knockout
  MIC Plating: 2.0 µg/mL (≈ 5.72 µM)
[2]; tolC knockout
  MIC Plating: 2.0 µg/mL (≈ 5.72 µM)
[2]; tolR knockout
  MIC Plating: 2.0 µg/mL (≈ 5.72 µM)
[2]; ubiG knockout
  MIC Plating: 2.0 µg/mL (≈ 5.72 µM)
[2]; xapR knockout
  MIC Plating: 1.5 µg/mL (≈ 4.29 µM)
[2]; ybeD knockout
  MIC Plating: 2.0 µg/mL (≈ 5.72 µM)
[2]; ybeY knockout
  MIC Plating: 2.0 µg/mL (≈ 5.72 µM)
[2]; ybgF knockout
  MIC Plating: 1.5 µg/mL (≈ 4.29 µM)
[2]; ybhT knockout
  MIC Plating: 2.0 µg/mL (≈ 5.72 µM)
[2]; yciM knockout
  MIC Plating: 1.5 µg/mL (≈ 4.29 µM)
[2]; yfgC knockout
  MIC Plating: 1.5 µg/mL (≈ 4.29 µM)
[2]; yfgL knockout
  MIC Plating: 2.0 µg/mL (≈ 5.72 µM)
[2]; ygcO knockout
  MIC Plating: 2.0 µg/mL (≈ 5.72 µM)
[2]; yjjY knockout
  MIC Plating: 1.5 µg/mL (≈ 4.29 µM)
[3]; BW25113 starting strain
  MIC E test: 5.0 µg/mL (≈ 14.3 µM)
[3]
  MIC E test: 1.5 µg/mL (≈ 4.29 µM)
[3]; dacA knockout
  MIC E test: 1.5 µg/mL (≈ 4.29 µM)
[3]; dapF knockout
  MIC E test: 2.0 µg/mL (≈ 5.72 µM)
[3]; pal knockout
  MIC E test: 2.0 µg/mL (≈ 5.72 µM)
[3]; rplA knockout
  MIC E test: 2.0 µg/mL (≈ 5.72 µM)
[3]; tatC knockout
  MIC E test: 3.0 µg/mL (≈ 8.59 µM)
[3]; tolC knockout
  MIC E test: 1.0 µg/mL (≈ 2.86 µM)

## gentamicin
[4]; BW25113 starting strain
  MIC Plating: 0.8 µg/mL
[4]; JW5360 knockout
  MIC Plating: >0.8 µg/mL
[4]; dapF knockout
  MIC Plating: 0.7 µg/mL
[4]; envC knockout
  MIC Plating: >0.5 µg/mL
[4]; gpmM knockout
  MIC Plating: 0.7 µg/mL
[4]; hflK knockout
  MIC Plating: 0.5 µg/mL
[4]; rfaC knockout
  MIC Plating: 0.7 µg/mL
[4]; rffA knockout
  MIC Plating: 0.7 µg/mL
[4]; rnt knockout
  MIC Plating: 0.7 µg/mL
[4]; rplI knockout
  MIC Plating: 0.7 µg/mL
[4]; rpmE knockout
  MIC Plating: 0.6 µg/mL
[4]; rpoN knockout
  MIC Plating: 0.5 µg/mL
[4]; sapC knockout
  MIC Plating: 0.5 µg/mL
[4]; secG knockout
  MIC Plating: 0.5 µg/mL
[4]; tatC knockout
  MIC Plating: 0.5 µg/mL
[4]; tolC knockout
  MIC Plating: 0.5 µg/mL
[4]; tusC knockout
  MIC Plating: 0.5 µg/mL
[4]; tusD knockout
  MIC Plating: 0.5 µg/mL
[4]; xapR knockout
  MIC Plating: >0.5 µg/mL
[4]; yciM knockout
  MIC Plating: >0.7 µg/mL
[4]; yfgC knockout
  MIC Plating: >0.5 µg/mL
[4]; yidD knockout
  MIC Plating: 0.5 µg/mL
